Test system: imiquimod-induced psoriasis
Test: Imiquimod-induced psoriasis (Th17 inflammation) model in mice, topical treatment once daily D7-D13: PASI, modified PASI, body weight, use of enrichment, TEWL
Assay type: in vivo
Set-up: key to Mean score use enrichment: 0 = no use of dental rolls to 4 = use of all 4; key to PASI Mean score values: sum of erythema, induration, peeling scores, each 0-3 (0 = none)
Settings: imiquimod-induced mice
Procedure: Thirty-six (36) female Balb/c mice are weighed and randomly divided into 9 groups (n=4) according to body weight on D1. For mice of native group 1 and tolerance groups 8 and 9, no induction of psoriasis is performed between D1 and D13. Psoriasis is induced in groups 2 to 7 by once daily topical application for 13 days (from day 1 to day 13) of 65 mg of Aldara™ cream (5.0% imiquimod) onto the shaved and epilated back of mice. Before the first treatment, a second randomization of mice of the 6 imiquimod-induced psoriasis groups is performed according to the severity of psoriasis (PASI), and also the body weight of mice. Starting on day 7 and until day 13, 100 mg of test formulations […] and 65 mg of vehicle (groups 1 and […]) are topically administered once daily for 7 consecutive days onto the shaved back skin of mice. Several measurements are taken during treatment period from day 7 to day 14: psoriasis index (PASI), body weight, use of enrichment and mortality. At the end of treatment period, TEWL is assessed, and blood and skin samples are collected. Histological analysis of skin samples is used for microscopic scoring of psoriasis and the determination of the thickness of parakeratosis and epidermis and blood analysis is used for assessing the level of proinflammatory biomarkers (cytokines assays). The effect of treatment of psoriasis induced mice with BETi formulations at the four dose levels are compared with Dermoval® cream containing 0.05% clobetasol propionate (reference) and vehicle (positive control) and also with healthy mice treated with vehicle (negative control).
PASI scoring takes into account the following 3 parameters: the presence of erythema on the skin, induration of the skin (thickening) and peeling of the skin at the area of the induction of psoriasis.
The presence of erythema on the skin at the area of induction of psoriasis with the following scoring grid: • 0=no or no more erythema on the skin, • 1=weak erythema on the skin, • 2=moderate erythema on the skin, • 3=important erythema on the skin.
The presence of induration of the skin at the area of induction of psoriasis with the following scoring grid: • 0=no or no more induration of the skin, • 1=weak induration of the skin, • 2=moderate induration of the skin, • 3=important induration of the skin.
The presence of peeling of the skin at the area of induction of psoriasis with the following scoring grid: • 0=no or no more dryness/peeling of the skin, • 1=weak dryness/peeling of the skin, • 2=moderate dryness/peeling of the skin, • 3=important dryness/peeling of the skin.
The sum of the mean scores of these 3 parameters result in the mean PASI score.
One of the issues with a steroid is that it causes skin thinning and continues to have an effect on no longer inflamed skin and the model set up and measurements above are not designed to reflect this negative effect. Therefore, a modified PASI (mPASI) is calculated in the same the manner as mean PASI score but excludes the scoring for induration (thickening of the skin).
Mice are weighed three times during the week of D1 to D7, and then daily during the week of D7 to D13, as well as on the day D14 when they are sacrificed. It should be noted that a characteristic body weight loss of mice is observed after the start of the induction of psoriasis, mainly during the first days following it. The body weight loss can reach between 10 to 15%.
For the duration of the experiment, dental rolls are used as enrichment and placed in each cage and replaced twice. Between D1 and D7, the number of dental rolls used by animals are determined twice in the morning, and are determined daily during D7 to D14, at the time of PASI or the tolerance assessment. The use of dental rolls is scored from 0=no use of dental rolls to 4=use of the 4 dental rolls. In the case where only half of a dental roll is used, a score of 0.5 is assigned. […]

For `Cn1cc(-c2cccc(O)c2Oc2ccccc2)c2cc[nH]c2c1=O` [BETi1], the “Modified PASI Mean score values” (D 2, listed as BETI1 0.1%) was 0.50, the “PASI Mean score values” (D 2, listed as BETI1 0.1%) was 0.50 and the “Modified PASI Mean score values” (D 2, listed as BETI1 1.0%) was 1.00. For the same compound, the “PASI Mean score values” (D 2, listed as BETI1 1.0%) was 1.00, the “Mean score use enrichment” value (D 2, listed as BETi 0.001%) was 0.25 and the “Mean score use enrichment” value (D 2, listed as BETi 0.01%) was 0.50. The “Mean score use enrichment” value (D 2, listed as BETi 0.1%) was 0.75, the “Modified PASI Mean score values” (D 2, listed as BETi1 0.001%) was 1.00 and the “PASI Mean score values” (D 2, listed as BETi1 0.001%) was 1.25. The “Modified PASI Mean score values” (D 2, listed as BETi1 0.01%) was 0.25, the “PASI Mean score values” (D 2, listed as BETi1 0.01%) was 0.25 and the “Mean score use enrichment” value (D 2, listed as BETi 1.0%) was 0.75. For the same compound, the “Modified PASI Mean score values” (D 3, listed as BETI1 0.1%) was 1.25, the “PASI Mean score values” (D 3, listed as BETI1 0.1%) was 1.25 and the “Modified PASI Mean score values” (D 3, listed as BETI1 1.0%) was 1.25. The “PASI Mean score values” (D 3, listed as BETI1 1.0%) was 1.25, the “Mean score use enrichment” value (D 3, listed as BETi 0.001%) was 0.75 and the “Mean score use enrichment” value (D 3, listed as BETi 0.01%) was 0.50. The “Mean score use enrichment” value (D 3, listed as BETi 0.1%) was 1.25, the “Modified PASI Mean score values” (D 3, listed as BETi1 0.001%) was 1.00 and the “PASI Mean score values” (D 3, listed as BETi1 0.001%) was 1.00. The “Modified PASI Mean score values” (D 3, listed as BETi1 0.01%) was 1.25, the “PASI Mean score values” (D 3, listed as BETi1 0.01%) was 1.25 and the “Mean score use enrichment” value (D 3, listed as BETi 1.0%) was 1.00. For the same compound, the “Modified PASI Mean score values” (D 4) was 2.75, the “PASI Mean score values” (D 4, listed as BETI1 0.1%) was 3.00 and the “PASI Mean score values” (D 4, listed as BETI1 1.0%) was 3.25. For the same compound, the “Mean score use enrichment” value (D 4, listed as BETi 0.001%) was 1.00, the “Mean score use enrichment” value (D 4, listed as BETi 0.01%) was 0.75 and the “Mean score use enrichment” value (D 4, listed as BETi 0.1%) was 1.25. The “PASI Mean score values” (D 4, listed as BETi1 0.001%) was 3.25, the “PASI Mean score values” (D 4, listed as BETi1 0.01%) was 3.25 and the “Mean score use enrichment” value (D 4, listed as BETi 1.0%) was 1.00. The “Modified PASI Mean score values” (D 5, listed as BETI1 0.1%) was 4.50, the “PASI Mean score values” (D 5, listed as BETI1 0.1%) was 5.75 and the “Modified PASI Mean score values” (D 5, listed as BETI1 1.0%) was 4.00. For the same compound, the “PASI Mean score values” (D 5, listed as BETI1 1.0%) was 5.50, the “Mean score use enrichment” value (D 5, listed as BETi 0.001%) was 1.25 and the “Mean score use enrichment” value (D 5, listed as BETi 0.01%) was 0.75. For the same compound, the “Mean score use enrichment” value (D 5, listed as BETi 0.1%) was 0.50, the “Modified PASI Mean score values” (D 5, listed as BETi1 0.001%) was 4.00 and the “PASI Mean score values” (D 5, listed as BETi1 0.001%) was 5.00. The “Modified PASI Mean score values” (D 5, listed as BETi1 0.01%) was 4.00, the “PASI Mean score values” (D 5, listed as BETi1 0.01%) was 5.25 and the “Mean score use enrichment” value (D 5, listed as BETi 1.0%) was 1.50. For the same compound, the “Modified PASI Mean score values” (D 6, listed as BETI1 0.1%) was 4.50, the “PASI Mean score values” (D 6, listed as BETI1 0.1%) was 7.00 and the “Modified PASI Mean score values” (D 6, listed as BETI1 1.0%) was 4.75. For the same compound, the “PASI Mean score values” (D 6, listed as BETI1 1.0%) was 7.25, the “Mean score use enrichment” value (D 6, listed as BETi 0.001%) was 1.25 and the “Mean score use enrichment” value (D 6, listed as BETi 0.01%) was 1.25. The “Mean score use enrichment” value (D 6, listed as BETi 0.1%) was 0.75, the “Modified PASI Mean score values” (D 6, listed as BETi1 0.001%) was 4.75 and the “PASI Mean score values” (D 6, listed as BETi1 0.001%) was 7.25. The “Modified PASI Mean score values” (D 6, listed as BETi1 0.01%) was 4.75, the “PASI Mean score values” (D 6, listed as BETi1 0.01%) was 7.00 and the “Mean score use enrichment” value (D 6, listed as BETi 1.0%) was 1.50.
